Source: publication PMC4503722, “Novel Phenotypic Outcomes Identified for a Public Collection of Approved Drugs from a Publicly Accessible Panel of Assays” (PLoS ONE, 2015)
Where two headings read alike, the source gives them in different places.

Legend:
[1] = test system: endothelial tube formation in co-cultures of ECFCs and ADSCs treated with VEGF; test: cells; type: cell-based, human
[2] = test system: nuclear β-catenin in C2C12 cells; test: cells; type: cell-based
INS-1E cells = test: cells; type: cell-based, rat
NCI-H716 cells = test: cells; type: cell-based, Human
HeLa cells = test: cells; type: cell-based; conditions: read-out: CellCycle G2/M
DLD-1 = test: cells; type: cell-based
SW480 = test: cells; type: cell-based
HCT116 = test: cells; type: cell-based
[3] = test system: HCT116 cells treated with a GSK3β inhibitor; test: cells; type: cell-based
Colo320 = test: cells; type: cell-based
HT-29 = test: cells; type: cell-based
RKO = test: cells; type: cell-based
SNU-C1 = test: cells; type: cell-based
hp70S6K1 (RPS6KB1) = biological target: T1, hp70S6K1 (RPS6KB1) (Homo sapiens, UniProt P23443); test: Cerep LANCE kinase assay hp70S6K1 (S1 assay 31); type: biochemical
T1 construct: purchased Cerep (LANCE kinase assay platform, contract assay)
T1 sequence (P23443 whole entry): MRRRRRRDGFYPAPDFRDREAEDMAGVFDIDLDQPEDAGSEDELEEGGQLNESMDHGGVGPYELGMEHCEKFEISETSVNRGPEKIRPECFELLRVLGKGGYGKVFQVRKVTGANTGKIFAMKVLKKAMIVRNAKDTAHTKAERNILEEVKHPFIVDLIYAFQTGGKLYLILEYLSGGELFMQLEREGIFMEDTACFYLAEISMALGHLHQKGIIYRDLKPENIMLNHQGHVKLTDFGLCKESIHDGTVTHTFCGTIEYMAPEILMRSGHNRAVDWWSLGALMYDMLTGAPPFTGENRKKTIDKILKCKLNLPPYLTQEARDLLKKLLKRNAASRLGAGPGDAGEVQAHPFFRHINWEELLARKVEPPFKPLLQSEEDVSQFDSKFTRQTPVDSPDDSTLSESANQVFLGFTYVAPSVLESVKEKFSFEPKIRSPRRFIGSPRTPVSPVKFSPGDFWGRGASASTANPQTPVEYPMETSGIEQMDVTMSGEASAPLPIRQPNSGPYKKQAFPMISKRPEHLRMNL

hKDR = biological target: T2, hKDR (Homo sapiens, UniProt P35968); test: Cerep LANCE kinase assay hKDR (S1 assay 32); type: biochemical
T2 construct: purchased Cerep (LANCE kinase assay platform, contract assay)
T2 sequence (P35968 20-1356): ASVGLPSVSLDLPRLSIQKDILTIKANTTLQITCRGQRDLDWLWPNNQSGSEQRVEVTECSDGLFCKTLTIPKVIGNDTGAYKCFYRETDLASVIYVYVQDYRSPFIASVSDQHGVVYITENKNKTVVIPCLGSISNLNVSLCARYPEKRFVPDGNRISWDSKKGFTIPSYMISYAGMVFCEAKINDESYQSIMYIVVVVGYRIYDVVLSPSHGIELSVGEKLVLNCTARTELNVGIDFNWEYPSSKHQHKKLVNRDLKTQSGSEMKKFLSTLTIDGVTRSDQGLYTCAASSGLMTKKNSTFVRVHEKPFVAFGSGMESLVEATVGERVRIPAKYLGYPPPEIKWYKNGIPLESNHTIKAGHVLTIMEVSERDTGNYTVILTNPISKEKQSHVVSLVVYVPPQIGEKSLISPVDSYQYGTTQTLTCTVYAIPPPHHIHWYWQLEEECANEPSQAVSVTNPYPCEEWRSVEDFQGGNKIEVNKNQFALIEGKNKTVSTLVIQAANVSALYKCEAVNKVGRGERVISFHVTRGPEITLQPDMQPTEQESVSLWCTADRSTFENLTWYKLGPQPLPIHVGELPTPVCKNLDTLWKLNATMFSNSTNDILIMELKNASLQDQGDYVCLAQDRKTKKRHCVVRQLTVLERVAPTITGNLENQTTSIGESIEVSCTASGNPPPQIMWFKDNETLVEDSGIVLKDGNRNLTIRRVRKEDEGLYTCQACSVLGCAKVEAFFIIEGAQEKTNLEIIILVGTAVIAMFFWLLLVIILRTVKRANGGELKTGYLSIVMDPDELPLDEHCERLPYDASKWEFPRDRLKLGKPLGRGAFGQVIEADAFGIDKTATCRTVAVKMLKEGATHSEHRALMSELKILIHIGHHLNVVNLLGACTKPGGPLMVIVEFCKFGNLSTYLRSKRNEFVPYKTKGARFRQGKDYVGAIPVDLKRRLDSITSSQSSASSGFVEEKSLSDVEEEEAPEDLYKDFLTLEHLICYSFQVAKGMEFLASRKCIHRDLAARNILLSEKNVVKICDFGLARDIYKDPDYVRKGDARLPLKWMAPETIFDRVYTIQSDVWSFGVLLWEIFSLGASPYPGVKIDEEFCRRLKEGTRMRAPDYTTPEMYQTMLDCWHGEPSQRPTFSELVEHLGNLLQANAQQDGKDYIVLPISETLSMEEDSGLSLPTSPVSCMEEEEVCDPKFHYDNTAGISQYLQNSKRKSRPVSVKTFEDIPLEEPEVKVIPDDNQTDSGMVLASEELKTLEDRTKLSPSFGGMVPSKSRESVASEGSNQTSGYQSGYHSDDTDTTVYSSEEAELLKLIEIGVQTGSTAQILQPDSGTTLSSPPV

hJAK2 = biological target: T3, hJAK2 (Homo sapiens, UniProt O60674); test: Cerep LANCE kinase assay hJAK2 (S1 assay 33); type: biochemical
T3 construct: purchased Cerep (LANCE kinase assay platform, contract assay)
T3 sequence (O60674 whole entry): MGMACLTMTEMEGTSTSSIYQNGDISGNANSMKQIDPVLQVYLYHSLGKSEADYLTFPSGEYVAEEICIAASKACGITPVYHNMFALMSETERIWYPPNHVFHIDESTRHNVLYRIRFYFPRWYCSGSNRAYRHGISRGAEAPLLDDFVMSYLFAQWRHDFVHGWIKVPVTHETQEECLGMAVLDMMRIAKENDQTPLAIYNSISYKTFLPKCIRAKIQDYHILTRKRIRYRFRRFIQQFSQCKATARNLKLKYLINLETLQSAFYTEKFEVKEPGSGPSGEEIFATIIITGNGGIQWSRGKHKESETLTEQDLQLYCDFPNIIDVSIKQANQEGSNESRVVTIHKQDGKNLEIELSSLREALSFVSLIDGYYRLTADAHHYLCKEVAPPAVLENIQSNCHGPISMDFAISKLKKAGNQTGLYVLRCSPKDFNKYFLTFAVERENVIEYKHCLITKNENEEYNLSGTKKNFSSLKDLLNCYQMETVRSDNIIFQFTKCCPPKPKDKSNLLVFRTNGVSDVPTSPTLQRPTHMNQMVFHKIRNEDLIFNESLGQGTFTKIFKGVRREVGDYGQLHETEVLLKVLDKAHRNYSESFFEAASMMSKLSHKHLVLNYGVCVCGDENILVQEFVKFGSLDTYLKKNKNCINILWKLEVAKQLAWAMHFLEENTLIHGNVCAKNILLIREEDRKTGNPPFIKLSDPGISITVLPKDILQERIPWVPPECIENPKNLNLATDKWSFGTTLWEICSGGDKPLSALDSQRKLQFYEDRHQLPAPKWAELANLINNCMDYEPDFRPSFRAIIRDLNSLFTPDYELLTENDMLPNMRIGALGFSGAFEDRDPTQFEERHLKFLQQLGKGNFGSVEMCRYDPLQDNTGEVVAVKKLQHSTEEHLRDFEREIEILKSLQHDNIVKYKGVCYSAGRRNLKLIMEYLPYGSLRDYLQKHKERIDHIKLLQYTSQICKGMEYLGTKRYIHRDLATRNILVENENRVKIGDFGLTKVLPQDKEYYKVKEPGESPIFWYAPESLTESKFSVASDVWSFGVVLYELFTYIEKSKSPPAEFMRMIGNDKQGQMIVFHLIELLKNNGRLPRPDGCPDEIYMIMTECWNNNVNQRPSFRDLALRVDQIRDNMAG

hGSK3b = biological target: T4, hGSK3b (Homo sapiens, UniProt P49841); test: Cerep LANCE kinase assay hGSK3b (S1 assay 34); type: biochemical
T4 construct: purchased Cerep (LANCE kinase assay platform, contract assay)
T4 sequence (P49841 whole entry): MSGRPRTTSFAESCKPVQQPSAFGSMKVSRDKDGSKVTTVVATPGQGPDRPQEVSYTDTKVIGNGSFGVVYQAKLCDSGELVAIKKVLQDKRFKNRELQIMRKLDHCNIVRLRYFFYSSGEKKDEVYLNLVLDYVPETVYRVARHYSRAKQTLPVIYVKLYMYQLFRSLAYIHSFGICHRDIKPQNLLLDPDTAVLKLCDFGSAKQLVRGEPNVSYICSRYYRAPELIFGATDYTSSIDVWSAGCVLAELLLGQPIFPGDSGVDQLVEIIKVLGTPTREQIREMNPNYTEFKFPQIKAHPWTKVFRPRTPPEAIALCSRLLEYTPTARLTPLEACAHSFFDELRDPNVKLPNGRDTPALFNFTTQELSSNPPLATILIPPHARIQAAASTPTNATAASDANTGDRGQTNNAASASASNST

hFLT3 = biological target: T5, hFLT3 (Homo sapiens, UniProt P36888); test: Cerep LANCE kinase assay hFLT3 (S1 assay 35); type: biochemical
T5 construct: purchased Cerep (LANCE kinase assay platform, contract assay)
T5 sequence (P36888 27-993): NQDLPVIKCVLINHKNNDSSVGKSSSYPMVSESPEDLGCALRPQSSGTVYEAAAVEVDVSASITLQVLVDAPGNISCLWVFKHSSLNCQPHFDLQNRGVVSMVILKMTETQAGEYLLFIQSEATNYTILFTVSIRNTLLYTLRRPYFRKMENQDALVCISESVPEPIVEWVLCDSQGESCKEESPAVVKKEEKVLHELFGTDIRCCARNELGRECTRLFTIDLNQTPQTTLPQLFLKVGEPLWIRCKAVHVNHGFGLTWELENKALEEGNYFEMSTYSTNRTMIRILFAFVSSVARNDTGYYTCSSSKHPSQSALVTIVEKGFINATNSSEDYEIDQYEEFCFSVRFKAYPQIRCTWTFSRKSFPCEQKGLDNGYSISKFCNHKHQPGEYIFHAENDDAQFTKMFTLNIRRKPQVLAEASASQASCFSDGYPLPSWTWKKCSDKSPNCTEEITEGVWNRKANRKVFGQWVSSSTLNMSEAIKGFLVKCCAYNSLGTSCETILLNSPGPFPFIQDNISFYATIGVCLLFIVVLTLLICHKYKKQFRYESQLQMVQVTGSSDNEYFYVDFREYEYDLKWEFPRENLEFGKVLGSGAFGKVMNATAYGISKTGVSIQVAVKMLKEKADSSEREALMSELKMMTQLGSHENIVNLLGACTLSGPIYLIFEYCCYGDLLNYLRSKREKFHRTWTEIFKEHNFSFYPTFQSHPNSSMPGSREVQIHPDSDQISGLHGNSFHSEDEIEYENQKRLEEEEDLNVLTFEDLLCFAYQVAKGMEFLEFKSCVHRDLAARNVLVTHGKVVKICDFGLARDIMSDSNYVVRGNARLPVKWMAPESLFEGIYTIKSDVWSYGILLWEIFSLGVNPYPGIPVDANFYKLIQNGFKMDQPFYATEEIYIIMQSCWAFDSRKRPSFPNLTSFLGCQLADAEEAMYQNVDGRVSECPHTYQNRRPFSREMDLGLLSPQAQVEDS

[4] = Homo sapiens, read-out: Anti-Angiogenesis
[5] = Mus musculus, C2C12, read-out: Wnt Pathway
[6] = Rattus norvegicus, INS-1E, read-out: Insulin Secretion
[7] = Homo sapiens, NCI-H716, read-out: GLP 1 Secretion
[8] = Homo sapiens, DLD-1, read-out: Basal_Viability ATP DLD-1
[9] = Homo sapiens, SW480, read-out: Basal_Viability ATP SW480
[10] = Homo sapiens, HCT-116, read-out: Basal_Viability ATP HCT116
[11] = Homo sapiens, HCT-116, read-out: GSK3b inh pretreated_Viability ATP HCT116
[12] = Homo sapiens, COLO 320, read-out: Basal_Viability ATP Colo 320
[13] = Homo sapiens, HT-29, read-out: Basal_Viability ATP HT-29
[14] = Homo sapiens, RKO, read-out: Basal_Viability ATP RKO
[15] = Homo sapiens, SNU-C1, read-out: Basal_Viability ATP SNU-C1
[16] = kinase assay, read-out: p70S6K1
[17] = Homo sapiens, IC50 / EC50; endothelial tube area, ADSC/ECFC co-culture; read-out: Anti-Angiogenesis
[18] = Mus musculus, C2C12, IC50 / EC50; C2C12 beta-catenin translocation; read-out: Wnt Pathway
[19] = Rattus norvegicus; IC50 / EC50; INS-1E; read-out: Insulin Secretion
[20] = Homo sapiens; IC50 / EC50; NCI-H716; read-out: GLP 1 Secretion
[21] = Homo sapiens, HeLa, IC50 / EC50, HeLa
[22] = Homo sapiens, SW480, basal, read-out: Basal_Viability ATP SW480
[23] = Homo sapiens, HCT-116, GSK3b inhibitor pretreated, read-out: GSK3b inh pretreated_Viability ATP HCT116
[24] = Homo sapiens, HT-29; read-out: Basal_Viability ATP HT-29
[25] = Homo sapiens, RKO; read-out: Basal_Viability ATP RKO

Structure (SMILES)	IC50 (hp70S6K1 (RPS6KB1); read-out: p70S6K1) [µM]	IC50 (hKDR; read-out: KDR) [µM]	IC50 (hJAK2; read-out: JAK2) [µM]	IC50 (hGSK3b; read-out: GSK3b) [µM]	IC50 (hFLT3; read-out: FLT3) [µM]	IC50 [1, 4] [µM]	EC50 [2, 5] [µM]	EC50 (INS-1E cells; [6]) [µM]	EC50 (NCI-H716 cells; [7]) [µM]	EC50 (HeLa cells; Homo sapiens, HeLa) [µM]	IC50 (DLD-1; [8]) [µM]	IC50 (SW480; [9]) [µM]	IC50 (HCT116; [10]) [µM]	IC50 [3, 11] [µM]	IC50 (Colo320; [12]) [µM]	IC50 (HT-29; [13]) [µM]	IC50 (RKO; [14]) [µM]	IC50 (SNU-C1; [15]) [µM]	IC50 (hp70S6K1 (RPS6KB1); [16]) [µM]	IC50 (hKDR; kinase assay, read-out: KDR) [µM]	also measured
O=C(CCl)c1ccc(Cl)cc1Cl [2,2',4'-Trichloroacetophenone]	> 20	> 20	> 20	> 20	> 20																IC50 ([1]; IC50 / EC50; endothelial tube area, ADSC/ECFC co-culture; read-out: Anti-Angiogenesis): 2.49 µM; EC50 ([2]; IC50 / EC50; C2C12 beta-catenin translocation; read-out: Wnt Pathway): 0.373 µM; EC50 (INS-1E cells; IC50 / EC50; INS-1E; read-out: Insulin Secretion): > 10 µM; EC50 (NCI-H716 cells; IC50 / EC50; NCI-H716; read-out: GLP 1 Secretion): > 10 µM; EC50 (HeLa cells; IC50 / EC50, HeLa): > 10 µM; IC50 (DLD-1; basal, read-out: Basal_Viability ATP DLD-1): 2.07 µM; IC50 (SW480; basal, read-out: Basal_Viability ATP SW480): 1.25 µM; IC50 (HCT116; basal, read-out: Basal_Viability ATP HCT116): 6.3 µM; IC50 ([3]; GSK3b inhibitor pretreated, read-out: GSK3b inh pretreated_Viability ATP HCT116): 1.1 µM; IC50 (Colo320; basal; read-out: Basal_Viability ATP Colo 320): 0.53 µM; IC50 (HT-29; basal; read-out: Basal_Viability ATP HT-29): 8.52 µM; IC50 (RKO; basal; read-out: Basal_Viability ATP RKO): 4.3 µM; IC50 (SNU-C1; basal, read-out: Basal_Viability ATP SNU-C1): 2.98 µM
COc1ccc(-c2ccc3cc(C(=O)O)ccc3c2)cc1C12CC3CC(CC(C3)C1)C2 [Adapalene]						0.524	> 10	> 10	> 10	> 10	0.597	0.405	0.59	0.945	0.787	1.12	0.444	1.78	> 20	7.1	IC50 (hJAK2; kinase assay, read-out: JAK2): 5.57 µM; IC50 (hGSK3b; kinase assay, read-out: GSK3b): 7.25 µM; IC50 (hFLT3; kinase assay, read-out: FLT3): > 20 µM
CCCSc1ccc2nc(NC(=O)OC)[nH]c2c1 [Albendazole]	> 20	> 20	> 20	> 20	> 20	0.355	1.28	> 10	> 10	0.0612	0.108	> 20	0.0852	0.154	0.502	> 20	0.165	> 20			
Cn1cnc([N+](=O)[O-])c1Sc1ncnc2nc[nH]c12 [Azathioprine]						> 10	> 10	> 10	> 10	> 10	0.364	9.44	0.207	0.623	10.3	> 20	2.66	> 20			IC50 (hp70S6K1 (RPS6KB1)): > 20 µM; IC50 (hKDR): > 20 µM; IC50 (hJAK2): > 20 µM; IC50 (hGSK3b): > 20 µM; IC50 (hFLT3): > 20 µM
CC(=O)Oc1ccc(C2(c3ccc(OC(C)=O)cc3)Oc3ccccc3NC2=O)cc1 [Bisoxatin diacetate]	> 20	> 20	> 20	> 20	> 20																IC50 ([1]; read-out: Anti-Angiogenesis): 2.27 µM; EC50 ([2]; read-out: Wnt Pathway): 14 µM; EC50 (INS-1E cells; read-out: Insulin Secretion): > 20 µM; EC50 (NCI-H716 cells; read-out: GLP 1 Secretion): > 10 µM; EC50 (HeLa cells): > 10 µM; IC50 (DLD-1; read-out: Basal_Viability ATP DLD-1): 19.7 µM; IC50 (SW480; read-out: Basal_Viability ATP SW480): 9.19 µM; IC50 (HCT116; read-out: Basal_Viability ATP HCT116): 2.42 µM; IC50 ([3]; read-out: GSK3b inh pretreated_Viability ATP HCT116): 3.26 µM; IC50 (Colo320; read-out: Basal_Viability ATP Colo 320): > 20 µM; IC50 (HT-29; read-out: Basal_Viability ATP HT-29): > 20 µM; IC50 (RKO; read-out: Basal_Viability ATP RKO): 9.23 µM; IC50 (SNU-C1; read-out: Basal_Viability ATP SNU-C1): > 20 µM
COc1ccc2cc1Oc1ccc(cc1)C[C@H]1c3c(cc4c(c3Oc3cc5c(cc3OC)CCN(C)[C@@H]5C2)OCO4)CCN1C [Cepharanthine]	> 20	> 20	> 20	> 20	> 20						12.4		9.54					7.48			IC50 [1, 17]: 3.02 µM; EC50 [2, 18]: 2.05 µM; EC50 (INS-1E cells; [19]): > 10 µM; EC50 (NCI-H716 cells; [20]): > 10 µM; EC50 (HeLa cells; [21]): > 10 µM; IC50 (SW480; [22]): 0.308 µM; IC50 [3, 23]: 3.57 µM; IC50 (Colo320; Homo sapiens, COLO 320; read-out: Basal_Viability ATP Colo 320): 1.43 µM; IC50 (HT-29; [24]): 1.36 µM; IC50 (RKO; [25]): 3.79 µM
COc1cccc2c1C(=O)c1c(O)c3c(c(O)c1C2=O)C[C@@](O)(C(C)=O)C[C@@H]3O[C@H]1C[C@H](N)[C@H](O)[C@H](C)O1 [Daunorubicin]	> 20	> 20	> 20	> 20	> 20										9.25						IC50 [1, 17]: > 10 µM; EC50 [2, 18]: 0.0061 µM; EC50 (INS-1E cells; [19]): > 10 µM; EC50 (NCI-H716 cells; [20]): > 10 µM; EC50 (HeLa cells; [21]): 0.0465 µM; IC50 (DLD-1; Homo sapiens, DLD-1, basal, read-out: Basal_Viability ATP DLD-1): 0.188 µM; IC50 (SW480; [22]): 1.47 µM; IC50 (HCT116; Homo sapiens, HCT-116, basal, read-out: Basal_Viability ATP HCT116): 0.0509 µM; IC50 [3, 23]: 0.0554 µM; IC50 (HT-29; [24]): 0.648 µM; IC50 (RKO; [25]): 0.118 µM; IC50 (SNU-C1; Homo sapiens, SNU-C1, basal, read-out: Basal_Viability ATP SNU-C1): 0.338 µM
Oc1c(I)cc(I)c2cccnc12 [Diiodohydroxyquinoline]						2.39	> 10	> 10	> 10	> 10	0.0178	0.0036	0.041	0.0667	0.0213	0.705	0.0227	0.0387	> 20	> 20	IC50 (hJAK2; kinase assay, read-out: JAK2): > 20 µM; IC50 (hGSK3b; kinase assay, read-out: GSK3b): > 20 µM; IC50 (hFLT3; kinase assay, read-out: FLT3): > 20 µM
O=c1c(-c2ccccc2)c1-c1ccccc1 [Diphenylcyclopropenone]						3.84	3.62	> 10	> 10	> 10	4.21	> 20	> 20	7.71	3.1	> 20	> 20	> 20	> 20	> 20	IC50 (hJAK2; kinase assay, read-out: JAK2): > 20 µM; IC50 (hGSK3b; kinase assay, read-out: GSK3b): > 20 µM; IC50 (hFLT3; kinase assay, read-out: FLT3): > 20 µM
COC(=O)Nc1nc2ccc(Sc3ccccc3)cc2[nH]1 [Fenbendazole]																			> 20	> 20	IC50 ([1]; Homo sapiens; read-out: Anti-Angiogenesis): 0.207 µM; EC50 ([2]; Mus musculus, C2C12; read-out: Wnt Pathway): 0.438 µM; EC50 (INS-1E cells; Rattus norvegicus, INS-1E; read-out: Insulin Secretion): > 10 µM; EC50 (NCI-H716 cells; Homo sapiens, NCI-H716; read-out: GLP 1 Secretion): > 20 µM; EC50 (HeLa cells; Homo sapiens, HeLa, S2 Table, HeLa, 20 = no response at highest concentration): 0.195 µM; IC50 (DLD-1; Homo sapiens, DLD-1, basal, DLD-1, read-out: Basal_Viability ATP DLD-1): 0.0673 µM; IC50 (SW480; Homo sapiens, SW480, basal, SW480, read-out: Basal_Viability ATP SW480): > 20 µM; IC50 (HCT116; Homo sapiens, HCT-116, basal, HCT116, read-out: Basal_Viability ATP HCT116): 0.001 µM; IC50 ([3]; Homo sapiens, HCT-116, HCT116 pretreated with GSK3b inhibitor, read-out: GSK3b inh pretreated_Viability ATP HCT116): 0.003 µM; IC50 (Colo320; Homo sapiens; basal; Colo 320; read-out: Basal_Viability ATP Colo 320): > 20 µM; IC50 (HT-29; Homo sapiens; basal; HT-29; read-out: Basal_Viability ATP HT-29): > 20 µM; IC50 (RKO; Homo sapiens; basal; RKO; read-out: Basal_Viability ATP RKO): 0.001 µM; IC50 (SNU-C1; Homo sapiens, SNU-C1, basal, SNU-C1, read-out: Basal_Viability ATP SNU-C1): > 20 µM; IC50 (hJAK2; kinase assay, read-out: JAK2): > 20 µM; IC50 (hGSK3b; kinase assay, read-out: GSK3b): > 20 µM; IC50 (hFLT3; kinase assay, read-out: FLT3): > 20 µM
